The text below walks through data of ChEMBL document CHEMBL2074264, “Expression cloning and characterization of ROAT1. The basolateral organic anion transporter in rat kidney” (J Biol Chem, 1997).

For orientation: Km means the concentration of substrate that gives half-maximal velocity.

Series [1] addresses T1, Solute carrier family 22 member 6 (Rattus norvegicus, UniProt O35956).
T1 sequence (O35956 whole entry): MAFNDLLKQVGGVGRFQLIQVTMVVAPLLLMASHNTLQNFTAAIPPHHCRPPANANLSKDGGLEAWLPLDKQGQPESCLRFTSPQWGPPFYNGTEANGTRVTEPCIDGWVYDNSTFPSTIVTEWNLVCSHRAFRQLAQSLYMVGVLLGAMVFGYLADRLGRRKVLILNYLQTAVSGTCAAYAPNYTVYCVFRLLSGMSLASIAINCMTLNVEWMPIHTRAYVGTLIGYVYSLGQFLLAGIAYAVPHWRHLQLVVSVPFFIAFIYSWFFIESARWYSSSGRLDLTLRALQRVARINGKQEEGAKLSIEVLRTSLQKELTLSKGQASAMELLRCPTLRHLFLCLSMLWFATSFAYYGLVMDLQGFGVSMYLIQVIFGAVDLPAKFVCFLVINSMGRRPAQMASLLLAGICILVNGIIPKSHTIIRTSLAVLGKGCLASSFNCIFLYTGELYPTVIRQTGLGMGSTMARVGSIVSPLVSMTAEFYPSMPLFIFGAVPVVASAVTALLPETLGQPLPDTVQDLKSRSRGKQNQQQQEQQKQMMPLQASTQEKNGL
The series can be described thus: TP_TRANSPORTER: inhibition of PAH uptake (PAH: 50 uM, Urate; 1000 uM) in Xenopus laevis oocytes. The format is functional, cell-based. The note with it: oocyte.

Substrate in series [2]: Nc1ccc(C(=O)NCC(=O)O)cc1
The series can be described thus: cells, lysate or membranes named.

Consider `O=c1[nH]c(=O)c2[nH]c(=O)[nH]c2[nH]1` [URIC ACID], for which, in series [1], the Activity result was “is not an inhibitor [-]”.

B1: Solute carrier family 22 member 6 (Rattus norvegicus) (protein)
chain: MAFNDLLKQVGGVGRFQLIQVTMVVAPLLLMASHNTLQNFTAAIPPHHCRPPANANLSKDGGLEAWLPLDKQGQPESCLRFTSPQWGPPFYNGTEANGTRVTEPCIDGWVYDNSTFPSTIVTEWNLVCSHRAFRQLAQSLYMVGVLLGAMVFGYLADRLGRRKVLILNYLQTAVSGTCAAYAPNYTVYCVFRLLSGMSLASIAINCMTLNVEWMPIHTRAYVGTLIGYVYSLGQFLLAGIAYAVPHWRHLQLVVSVPFFIAFIYSWFFIESARWYSSSGRLDLTLRALQRVARINGKQEEGAKLSIEVLRTSLQKELTLSKGQASAMELLRCPTLRHLFLCLSMLWFATSFAYYGLVMDLQGFGVSMYLIQVIFGAVDLPAKFVCFLVINSMGRRPAQMASLLLAGICILVNGIIPKSHTIIRTSLAVLGKGCLASSFNCIFLYTGELYPTVIRQTGLGMGSTMARVGSIVSPLVSMTAEFYPSMPLFIFGAVPVVASAVTALLPETLGQPLPDTVQDLKSRSRGKQNQQQQEQQKQMMPLQASTQEKNGL
For B1, in series [2], the Km came to 70 µM.
